Data from patent US20240158386A1, “BENZOXAZOLONE INHIBITORS OF INFLAMMASOMES” (ICAHN SCHOOL OF MEDICINE AT MOUNT SINAI, priority 2021, published 2024).

Columns and labels:
[1] = target: T1, NLRP3 inflammasome (Mus musculus, UniProt Q8R4B8); experiment: NLRP3 inflammasome activation assay: IL-1β release by primary microglia after LPS and ATP; assay type: cell-based, murine; details: for inhibition of IL-1β release upon NLRP3 activation: 100 μM compound; for inhibition of IL-1β release upon NLRP3 activation / IC50: microglia, LPS and ATP; for IC50: IL-1β release, nonlinear fit of dose-response, read-out: IC50; for remaining activity at 100 µM: microglia cultures pretreated with 100 μM compound before NLRP3 activation with LPS and ATP, read-out: % Residual activity (percentage of IL-1β, referred to control)
T1 construct: endogenous in cells; host or cells: primary microglia from cortices of 2-3 day old WT mouse pups
T1 sequence (Q8R4B8 whole entry): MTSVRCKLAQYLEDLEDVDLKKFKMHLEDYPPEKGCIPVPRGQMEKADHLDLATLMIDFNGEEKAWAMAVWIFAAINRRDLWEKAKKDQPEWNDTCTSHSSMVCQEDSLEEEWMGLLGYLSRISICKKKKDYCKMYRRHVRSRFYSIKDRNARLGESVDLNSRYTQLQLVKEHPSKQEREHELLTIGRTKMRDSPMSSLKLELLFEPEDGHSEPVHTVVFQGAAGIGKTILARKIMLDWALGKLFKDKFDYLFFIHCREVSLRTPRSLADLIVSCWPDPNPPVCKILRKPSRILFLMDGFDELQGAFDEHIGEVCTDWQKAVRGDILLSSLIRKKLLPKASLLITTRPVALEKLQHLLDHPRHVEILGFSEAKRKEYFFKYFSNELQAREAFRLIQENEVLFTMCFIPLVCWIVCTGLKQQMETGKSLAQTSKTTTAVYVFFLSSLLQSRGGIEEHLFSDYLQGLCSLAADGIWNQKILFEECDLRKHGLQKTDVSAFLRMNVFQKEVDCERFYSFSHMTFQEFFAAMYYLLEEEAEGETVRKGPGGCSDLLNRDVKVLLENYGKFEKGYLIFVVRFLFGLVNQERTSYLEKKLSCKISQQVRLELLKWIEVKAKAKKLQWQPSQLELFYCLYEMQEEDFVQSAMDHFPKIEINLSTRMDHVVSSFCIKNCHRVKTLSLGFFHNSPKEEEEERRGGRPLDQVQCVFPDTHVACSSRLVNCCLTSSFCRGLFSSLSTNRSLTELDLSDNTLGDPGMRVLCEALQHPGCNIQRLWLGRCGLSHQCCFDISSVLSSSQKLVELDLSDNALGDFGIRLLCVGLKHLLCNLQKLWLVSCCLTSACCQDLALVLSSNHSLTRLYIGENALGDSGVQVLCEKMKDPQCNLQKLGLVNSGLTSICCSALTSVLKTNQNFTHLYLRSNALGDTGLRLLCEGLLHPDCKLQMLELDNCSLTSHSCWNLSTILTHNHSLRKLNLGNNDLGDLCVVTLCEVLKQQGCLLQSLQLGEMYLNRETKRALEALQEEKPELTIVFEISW
Procedure: Murine primary microglia. Mixed cortical cultures were prepared as previously described (Bronstein, R. et al. J. Vis. Exp. JoVE 50647 (2013) doi:10.3791/50647). Briefly, cortices from 2-3 days old, WT, or NLRP3 KO pups were isolated, digested, and seeded at a density of 8 cortices per 10 ml petri dish. Every three days, the medium was replaced by fresh culture medium (DMEM, 10% FBS, 1% penicillin-streptomycin). After three weeks, mixed glial cultures had reached confluence, and microglia cells were isolated by mild trypsinization as previously described (Saura, J. et al. Glia 44, 183-189 (2003)). In brief, cells were washed with culture medium without FBS and treated with a mixture of trypsin 0.25% (without EDTA) and DMEM-F12 medium in a 1:3 proportion. After an incubation period of approximately 40 min, an intact layer of mixed glial cells detached, leaving microglia attached firmly to the bottom of the Petri-dish. Pure microglia were then isolated by 15 min incubation with trypsin (0.05%)-EDTA at 37° C., followed by gentle shaking. Cells were counted and seeded at the desired density, typically 7.5·10^4 cells/well in 24 well-plates.
NLRP3 inflammasome activation assay. Primary microglia cultures were incubated with the compounds that inhibited IL-1β production in THP1 macrophages. Cells pretreated with 100 μM of the compounds—or with the same DMSO volume, in the case of control samples—were primed with 400 ng/ml LPS for 3 hours, and activated with 4.5 mM ATP for 45 minutes or […] nigericin for 1 hour. Dose-response curves were conducted by incubating microglia cultures with different concentrations of the selected compounds, ranging from 0.001 to 100 μM, 1 hour before NLRP3 activation with LPS and ATP. Supernatants were collected for IL-1β and toxicity assessments.
(§1) Cytokine quantification. IL-1β in cell supernatants and brain tissue samples—after the different treatment groups—was quantified using the Mouse IL-1 beta/IL-1F2 DuoSet ELISA kit (R&D systems), IL-6 in cell culture supernatant was measured through the Mouse IL-6 ELISA kit (ThermoFisher), TNF-α in cell culture supernatants was determined using the Mouse TNF-alpha DuoSet ELISA (R*D systems), and IL-18 in brain tissue was measured through the IL-18 Mouse ELISA Kit (Invitrogen) following the manufacturers' recommended protocol. IL-1β precursor and cleaved IL-1β in the FC of mice treated with vehicles, LPS, or C77-LPS was assessed by western blot. All samples were run in technical duplicates.

[2] = target: T2, NLRC4 inflammasome (Mus musculus, UniProt Q3UP24); experiment: NLRC4 inflammasome activation assay: IL-1β release, microglia from NLRP3 KO mice, LPS and flagellin; assay type: cell-based; details: 10 μM; microglia from NLRP3 KO mice, LPS and flagellin
T2 construct: endogenous in cells; host or cells: primary microglia from NLRP3 KO mice
T2 sequence (Q3UP24 whole entry): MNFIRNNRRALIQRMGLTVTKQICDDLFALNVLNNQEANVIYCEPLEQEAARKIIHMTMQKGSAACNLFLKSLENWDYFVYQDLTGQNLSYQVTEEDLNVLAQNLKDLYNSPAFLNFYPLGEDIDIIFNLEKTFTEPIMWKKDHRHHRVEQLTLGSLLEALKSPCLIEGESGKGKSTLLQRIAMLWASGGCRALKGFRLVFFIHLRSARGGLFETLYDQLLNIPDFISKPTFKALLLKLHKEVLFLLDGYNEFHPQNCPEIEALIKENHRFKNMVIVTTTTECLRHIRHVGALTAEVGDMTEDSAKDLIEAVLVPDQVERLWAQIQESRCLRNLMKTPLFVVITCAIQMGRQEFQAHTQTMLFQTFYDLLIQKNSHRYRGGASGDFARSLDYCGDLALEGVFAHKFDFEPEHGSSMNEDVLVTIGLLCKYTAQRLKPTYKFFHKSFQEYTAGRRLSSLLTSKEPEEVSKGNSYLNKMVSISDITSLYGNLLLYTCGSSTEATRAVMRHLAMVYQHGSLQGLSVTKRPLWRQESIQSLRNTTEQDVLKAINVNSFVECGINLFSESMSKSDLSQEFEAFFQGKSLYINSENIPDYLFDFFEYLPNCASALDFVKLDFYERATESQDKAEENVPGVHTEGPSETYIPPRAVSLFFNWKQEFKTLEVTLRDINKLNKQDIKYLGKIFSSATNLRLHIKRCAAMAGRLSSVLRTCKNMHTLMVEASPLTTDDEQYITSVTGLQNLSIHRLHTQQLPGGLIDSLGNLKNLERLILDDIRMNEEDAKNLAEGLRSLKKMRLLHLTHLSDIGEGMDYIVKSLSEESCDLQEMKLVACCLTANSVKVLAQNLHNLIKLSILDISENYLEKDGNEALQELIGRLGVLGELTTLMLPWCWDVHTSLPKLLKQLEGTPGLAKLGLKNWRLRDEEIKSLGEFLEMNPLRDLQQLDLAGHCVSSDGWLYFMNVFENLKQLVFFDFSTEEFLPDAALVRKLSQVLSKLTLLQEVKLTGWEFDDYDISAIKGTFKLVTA
Procedure: AIM2, NLRP7, and NLRC4 inflammasomes activation assays. […] AIM2 inflammasome activation was induced through the addition of 100 ng/ml LPS for 2 hours, followed by transfection of 1 μg poly(dA:dT) using Lipofectamine 2000 during 2 hours, following the manufacturer recommendations. NLRC4 was activated by treatment with 150 ng/ml LPS for 2 hours, before transfection of 1 μg flagellin during 2 hours, using lipofectamine 2000 as transfection reagent. Negative and positive controls were pre-treated with the same DMSO percentage as cells treated with the inhibitors. Negative controls were kept untreated after DMSO addition, while LPS-poly(dA:dT) or LPS-flagellin was added to positive controls for AIM2, and NLRC4 activation, respectively. For activation of the NLRP7 inflammasome different conditions were assessed: treatment of WT microglia cultures with 400 ng/ml fibroblast-stimulating lipopeptide-1 (fsl-1) for 7 hours, priming with 150 ng/ml LPS for 1 hour and treatment with 400 ng/ml fsl-1 for 7 hours, and priming with 150 ng/ml LPS and transfection of 400 ng/ml fsl-1 with lipofectamine. MCC950 was used as a negative control for NLRC4 and AIM-2 inhibition. Cells were pretreated with 5 μM MCC950 before LPS addition, and 2 hours later the NLRC4 and AIM-2 activation was induced through addition of their specific activators. Cell supernatants were collected for IL-1β measurement.
as §1

[3] = tested on: ASC specks following NLRP3 activation; experiment: ASC speck formation / ASC oligomerization in m-Cerulean ASC labeled macrophages; assay type: cell-based, murine; details: 10 μM pretreatment, LPS and ATP, compared with DMSO-treated cells
Procedure: m-Cerulean ASC labeled macrophages. NLRP3 Knock Out immortalized murine macrophages, stably expressing m-Cerulean-ASC, and NLRP3-Flag were a kind donation of Prof. Eicke Latz, (Institute of Innate Immunity, University of Bonn, Germany). Murine macrophages were maintained in high glucose DMEM medium supplemented with 10% FBS, 1% sodium pyruvate, and passaged every 2-3 days, before reaching confluence.
For ASC speck formation evaluation, murine macrophages were seeded in 96 well SCREENSTAR black microplates with clear base, 24 hours before stimulation. Then, cells were incubated for 1 hour with different concentrations of the inhibitors, or with the same DMSO volume for positive and negative controls for NLRP3 activation—DMSO-LPS-ATP or only DMSO, respectively. 0.5 μM MCC950 was used as a positive control for inhibition of NLRP3-mediated ASC oligomerization. NLRP3 activation was induced through treatment with 250 ng/ml LPS for 2.5 hours, followed by addition of 4.5 mM ATP for 45 min. Cells were then fixed and counterstained in a single step, as previously described (Stutz, A. et al. ASC Speck Formation as a Readout for Inflammasome Activation. in The Inflammasome (eds. De Nardo, C. M. & Latz, E.) vol. 1040 91-101 (Humana Press, 2013).). For that, a stock solution of DRAQS in formaldehyde was used, being the final concentrations 1% formaldehyde and 2.5 μM DRAQ5.
ASC oligomerization determination. […] ASC specks in cells pretreated with C75, C77, C78, and C97, before NLRP3 activation (as above indicated), were visualized with a widefield Leica DMi8 fluorescence microscope, using the 20× objective. […] For image analysis and speck quantification, ImageJ was used https://imagej.nih.gov/ij/index.html. Speck and nuclei quantification was performed as previously described in Stutz et al. When required (overlapping nuclei), the watershed separation algorithm was used to separate the particles. […] The rate of speck positive cells was calculated by normalizing the number of speck positive cells to the number of nuclei. […]

inhibition of IL-1β release upon NLRP3 activation [1]	IC50 [1] [µM]	remaining activity at 100 µM [1] [%]	SMILES	inhibition of NLRC4-mediated IL-1β production [2]	rate of ASC speck positive cells [3]
completely prevented IL-1β secretion	9.24 ± 1.06	0	O=C(Cn1c(=O)oc2ccccc21)NCC(O)(c1ccoc1)c1ccco1 (stereo not shown) [Compound C75]	presented inhibitory power against the NLRC4 inflammasome	significantly reduced
completely prevented IL-1β secretion	8.26 ± 1.16	0	O=C(Cn1c(=O)oc2ccccc21)NCCn1cc(-c2ccoc2)cn1 [Compound C78, N-(2-(4-(furan-3-yl)-1H-pyrazol-1-yl)ethyl)-2-(2-oxobenzoidloxazol-3(2H)-yl)acetamide]	presented inhibitory power against the NLRC4 inflammasome	significantly reduced
